Laboratory results taken from patent publication US11000485B2, “Substituted hydroxystilbenes as AhR and Nrf2 modulators and their therapeutic applications” (Resolvex Pharmaceuticals Inc., priority 2017, dated 2021).

How the values were obtained:
[1] = system: MDA-MB-435 cells; assay: Cell viability (MTS); assay type: cell-based; conditions: 48 hours
Experimental: (§1) Cells were cultured in RPMI-1640 containing 10% FBS (Jurkat and THP-1) or DMEM containing 10% FBS (A549 and MDA-MB-435). On Day 1, 1-5×10^4 cells per well in 100 μL of the cell culture medium containing 0.5% FBS were seeded into a 96-well flat bottom plate. On Day 2, the test compounds were added to the culture at different concentrations in triplicates. The controls include triplicates of no compound treatment and cell culture medium without cells. The cells were incubated at 5% CO2, 37° C. for 48 hours. On Day 4, MTS reagent was added to each well and incubated at 37° C. for 4 hours. The absorbance was read at 490 nm. The percentage of inhibition was calculated using the formula: [1-(experiment reading-background reading)/(negative control reading-background reading)]×100.

[2] = system: Jurkat cells; assay: Cell viability (MTS); assay type: cell-based; conditions: 48 hours
Experimental: as §1

[3] = system: THP1 cells; assay: Cell viability (MTS); assay type: cell-based; conditions: 48 hours
Experimental: as §1

[4] = target: T1, recombinant human PDE4B1 enzyme (Homo sapiens, UniProt Q07343); assay: PDE4B1 radiometric enzyme assay; assay type: biochemical; conditions: 1 μM cAMP
T1 construct: host or cells: baculoviral system
T1 sequence (Q07343 whole entry): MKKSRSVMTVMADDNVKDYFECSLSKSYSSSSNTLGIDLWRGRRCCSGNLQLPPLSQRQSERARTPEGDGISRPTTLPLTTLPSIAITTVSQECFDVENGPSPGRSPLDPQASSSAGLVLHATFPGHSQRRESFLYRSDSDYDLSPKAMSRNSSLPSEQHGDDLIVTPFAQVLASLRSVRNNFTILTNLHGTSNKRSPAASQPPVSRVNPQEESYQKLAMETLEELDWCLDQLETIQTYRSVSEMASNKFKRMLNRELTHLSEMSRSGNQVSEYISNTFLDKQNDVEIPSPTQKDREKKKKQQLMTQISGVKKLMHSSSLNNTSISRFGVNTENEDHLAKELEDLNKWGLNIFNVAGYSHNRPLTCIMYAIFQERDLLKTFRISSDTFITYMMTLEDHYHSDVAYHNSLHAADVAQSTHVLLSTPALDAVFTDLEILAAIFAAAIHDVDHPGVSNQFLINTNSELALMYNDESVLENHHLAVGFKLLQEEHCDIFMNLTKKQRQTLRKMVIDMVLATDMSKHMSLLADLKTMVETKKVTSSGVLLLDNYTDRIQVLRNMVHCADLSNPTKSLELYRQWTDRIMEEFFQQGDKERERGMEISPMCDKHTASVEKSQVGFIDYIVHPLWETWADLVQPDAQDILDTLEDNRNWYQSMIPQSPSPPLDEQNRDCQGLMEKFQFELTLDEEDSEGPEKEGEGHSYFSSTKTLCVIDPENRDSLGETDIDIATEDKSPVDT
Experimental: Assays were performed using recombinant human PDE4B1 enzyme expressed in a baculoviral system. […] The reactions were performed at 1 μM of cAMP. The test articles were each tested at 0.2 μM and 20 μM in triplicates.

[5] = system: MDA-MB-435 cells; assay: Cell proliferation ([3H]-thymidine); assay type: cell-based; conditions: 48 hours, read-out: Anti-proliferation IC50, MDA-MB-435
Experimental: (§2) Cells were cultured in RPMI-1640 containing 10% FBS (Jurkat) or DMEM containing 10% FBS (MDA-MB-435). On Day 1, 1×10^4 cells were seeded into one well of a 96-well white ISOPLATE™ with 0.5% FBS. The cells were cultured at 5% CO2, 37° C. overnight. On Day 2, the diluted test compounds were added into each well in a total volume of 100 μL of cell culture medium. For each cell line were set up three wells containing cells and only diluted DMSO as a negative (vehicle) control, and three wells without cells but containing the same volume and type of cell culture medium as background control. The cells were incubated at 5% CO2, 37° C. for 24 hours. On Day 3, 1 μL of [^3H]-thymidine was added into each well and incubation at 5% CO2, 37° C. was continued for another 24 hours. On Day 4, 30 μL of 50% TCA was added into each well and was incubated at 4° C. for 4 hours. Plates were washed with ddH2O four times and then air dried for 30 minutes followed by the addition of 100 μL of scintillation fluid into each well. The radioactivity was read using MICROBETA TRILUX™. The percentage of inhibition was calculated using the formula [1-(experiment reading-background reading)/(negative control reading-background reading)]×100.

[6] = system: Jurkat cells; assay: Cell proliferation ([3H]-thymidine); assay type: cell-based; conditions: 48 hours, read-out: Anti-proliferation IC50, Jurkat
Experimental: as §2

| Structure (SMILES) | IC50 [1] | IC50 [2] | IC50 [3] | Inhibitory activity on PDE4B1 enzyme ([4]; 0.2 μM compound) | Inhibitory activity on PDE4B1 enzyme ([4]; 20 μM compound) | IC50 [5] | IC50 [6] |
| --- | --- | --- | --- | --- | --- | --- | --- |
| N#Cc1ccc(/C=C/c2ccc(C3CC3)c(O)c2)cc1C#N [Compound 18] | 1270 nM | 3280 nM | 2400 nM | – | – | – | – |
| Oc1cc(/C=C/c2ccc(F)cc2)ccc1C1CCCC1 [Compound 20] | – | – | – | + (“+” is 15-30% inhibition) | +++ (“+++” is greater than 50% inhibition) | – | – |
| Oc1cc(/C=C/c2ccc(F)cc2F)ccc1C1CCCC1 [Compound 21] | 1950 nM | 3730 nM | 6930 nM | – | – | 1770 nM | 690 nM |
| Oc1cc(/C=C/c2c(F)cccc2F)ccc1C1CCCC1 [Compound 22] | 1720 nM | 2960 nM | 2460 nM | – | – | – | – |
| Oc1cc(/C=C/c2ccc(F)cc2)ccc1C1CCCCC1 [Compound 24] | 390 nM | 2660 nM | 7180 nM | – | – | – | – |
| Oc1cc(/C=C/c2ccc(F)cc2)ccc1C1CCCCCC1 [Compound 27] | – | – | – | + (“+” is 15-30% inhibition) | +++ (“+++” is greater than 50% inhibition) | – | – |
